Laboratory results reported in US11117868B2, “Edaravone salt” (Treeway TW001 B.V., priority 2017, dated 2021).
≈ marks a conversion by molar mass, not a printed value. Where “and” joins values, the source holds several entries; their conditions need not be identical. Equal values may be shown once. Blank lines part the entries; values can stand above or below the molecule they belong to.

Key:
[1] = Hygroscopicity / conversion of polymorph through absorption of water; type: physicochemical
[2] = Storage stability at controlled temperature and relative humidity
[3] = Solubility in water after 7 hours equilibration; type: physicochemical
[4] = Intrinsic dissolution rate in water; type: physicochemical
Experimental: The intrinsic dissolution rate in water of the edaravone salt was 0.37 mg/min/cm^2, whereas the dissolution rate of the freebase was 0.22 mg/min/cm^2.

[5] = cited from earlier work

Molecule: anhydrous 3-methyl-1-phenyl-2-pyrazolin-5-one napadisylate [Example 6]
- relative humidity at which it is converted into polymorph D through absorption of water ([1]; conversion into polymorph D): > 75 % RH
- degradation on storage ([2]; kept for 2 days at 40° C. and 75% RH): without showing significant degradation

Molecule: CC1=NN(c2ccccc2)C(=O)C1 [Edaravone, 3-Methyl-1-phenyl-2-pyrazolin-5-one]
- solubility at 7 h ([3]; thermodynamic from solid): 2000 to 3000 µg/mL (≈ 11.5 to 17.2 mM)
- intrinsic dissolution rate in water [4]: 0.22 mg/min/cm^2
- dissolution in water (in words) [5]: dissolves very slowly

Molecule: 3-methyl-1-phenyl-2-pyrazolin-5-one hemi-napadisylate monohydrate [Example 1]
- solubility in water ([3]; monohydrate): 2800 µg/mL and 3200 µg/mL
- intrinsic dissolution rate in water [4]: 0.37 mg/min/cm^2
- hygroscopicity [1]: non-hygroscopic
- stability (in words) [2]: very stable
- degradation on storage ([2]; kept for 28 days at 40° C. and 75% RH): without showing significant degradation

Now from value to molecule:

- relative humidity at which it is converted into polymorph B through absorption of water ([1]; conversion into polymorph B): > 50 % RH
Molecule: CC1=NN(c2ccccc2)C(=O)C1.CC1=NN(c2ccccc2)C(=O)C1.O.O=S(=O)(O)c1cccc2c(S(=O)(=O)O)cccc12 [Example 3, 3-methyl-1-phenyl-2-pyrazolin-5-one hemi-napadisylate hemihydrate]

- hygroscopicity [1]: non-hygroscopic
Molecule: CC1=NN(c2ccccc2)C(=O)C1.CC1=NN(c2ccccc2)C(=O)C1.O.O.O=S(=O)(O)c1cccc2c(S(=O)(=O)O)cccc12 [Example 4, 3-methyl-1-phenyl-2-pyrazolin-5-one hemi-napadisylate monohydrate]
